Experimental findings from patent publication US8686150B2 (Sanofi, priority 2011, dated 2014) are described below.

For orientation: inhibition means the relative decrease from the control value, in per cent. By % Inhibition is commonly meant the share of the control response that was lost under treatment.

T1 sequence (P05771 1-673 isoform P05771-2): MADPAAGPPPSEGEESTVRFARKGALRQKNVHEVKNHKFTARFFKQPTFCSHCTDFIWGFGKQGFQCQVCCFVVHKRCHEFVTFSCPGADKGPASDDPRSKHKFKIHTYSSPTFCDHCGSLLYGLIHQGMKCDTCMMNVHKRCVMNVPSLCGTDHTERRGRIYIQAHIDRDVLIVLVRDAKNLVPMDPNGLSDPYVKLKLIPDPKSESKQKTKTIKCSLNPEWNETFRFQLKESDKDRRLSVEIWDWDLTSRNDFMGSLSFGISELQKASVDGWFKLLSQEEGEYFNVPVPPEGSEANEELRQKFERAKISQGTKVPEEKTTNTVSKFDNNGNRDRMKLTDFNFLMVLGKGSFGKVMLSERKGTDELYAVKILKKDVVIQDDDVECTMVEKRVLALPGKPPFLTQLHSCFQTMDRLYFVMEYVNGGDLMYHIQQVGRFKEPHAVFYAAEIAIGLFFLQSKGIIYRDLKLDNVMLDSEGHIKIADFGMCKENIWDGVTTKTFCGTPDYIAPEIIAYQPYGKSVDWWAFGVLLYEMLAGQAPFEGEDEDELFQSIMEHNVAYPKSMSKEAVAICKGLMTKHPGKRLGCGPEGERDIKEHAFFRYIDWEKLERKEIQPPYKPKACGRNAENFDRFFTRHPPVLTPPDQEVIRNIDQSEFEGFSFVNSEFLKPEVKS

This test addresses T1, human full-length recombinant PKC βII (Homo sapiens, UniProt P05771).
T1 construct: Active human full-length recombinant PKC βII; purchased Invitrogen GmbH, Darmstadt, Germany
In words: Determination of PKC βII inhibition (Caliper mobility-shift kinase assay, Fluorescein-RFARKGSLRQKNV peptide substrate). The class given is biochemical. To be noted: example compounds at a final concentration of 1.14 μM (±0.15 μM). The procedure, abridged:
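Full-length PKC βII (30 ng/ml in pre-dilution) with PS/DAG/Ca2+ activators, pH 7.4; fluorescein peptide and ATP at 3 μM and 120 μM before mixing. Reaction ran 60 min at 32 °C, was EDTA-stopped, and was read by mobility shift. % inhibition came from product/(substrate+product) peak heights, tested at 1.14 μM final.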
On to `CCc1n[nH]c2nc(-c3ccc(O)cc3)cc(C(=O)NC3CCNC4(CCC4)C3)c12` (stereo not drawn) [Example 168, 3-Ethyl-6-(4-hydroxy-phenyl)-1H-pyrazolo[3,4-b]pyridine-4-carboxylic acid (5-aza-spiro[3.5]non-8-yl)-amide], for which the inhibition at 1.14 µM amounted to 44%.
On the same count and under the same terms, the value for `Cc1n[nH]c2nc(-c3ccc(O)cc3)cc(C(=O)N3CCN(C(=O)N4CCCC4)CC3)c12` [Example 379, {4-[6-(4-Hydroxy-phenyl)-3-methyl-1H-pyrazolo[3,4-b]pyridine-4-carbonyl]-piperazin-1-yl}-pyrrolidin-1-yl-methanone] was 86%.
The same measure, in the same setting: the value for `Cc1n[nH]c2nc(-c3ccc(O)cc3)cc(C(=O)N3CCNCC34Cc3ccccc3C4)c12` [Example 42, (1,3-Dihydro-spiro[indene-2,2′-piperazin]-1′-yl)-[6-(4-hydroxy-phenyl)-3-methyl-1H-pyrazolo[3,4-b]pyridin-4-yl]-methanone] was 72%; that for `CCc1n[nH]c2nc(-c3ccc(O)cc3)cc(C(=O)NC3CN4CCC3CC4)c12` (stereo not drawn) [Example 159, 3-Ethyl-6-(4-hydroxy-phenyl)-1H-pyrazolo[3,4-b]pyridine-4-carboxylic acid (1-aza-bicyclo[2.2.2]oct-3-yl)-amide] was 55%.
As for `Cc1n[nH]c2nc(-c3ccc(O)cc3F)cc(C(=O)N3C[C@@H](c4ccccc4)NC[C@@H]3C)c12` (single isomer, unassigned) [Example 461, [6-(2-Fluoro-4-hydroxy-phenyl)-3-methyl-1H-pyrazolo[3,4-b]pyridin-4-yl]-(trans-2-methyl-5-phenyl-piperazin-1-yl)-methanone], the “% Inhibition” value was determined as 99%.
For `Cc1n[nH]c2nc(-c3ccc(O)cc3)cc(C(=O)N3CCNCC3c3ccc(Cl)c(Cl)c3)c12` (stereo not drawn) [Example 29, [2-(3,4-Dichloro-phenyl)-piperazin-1-yl]-[6-(4-hydroxy-phenyl)-3-methyl-1H-pyrazolo[3,4-b]pyridin-4-yl]-methanone], the inhibition at 1.14 µM was found to be 99%.
`Cc1n[nH]c2nc(-c3ccc(O)c(F)c3)cc(C(=O)NC3CC4(CC(N)C4)C3)c12` (stereo not drawn) [Example 288, 6-(3-Fluoro-4-hydroxy-phenyl)-3-methyl-1H-pyrazolo[3,4-b]pyridine-4-carboxylic acid (6-amino-spiro[3.3]hept-2-yl)-amide]: the inhibition at 1.14 µM turned out to be 59%.
Same read-out and setting: the value for `CCC(CCN)NC(=O)c1cc(-c2ccc(O)cc2)nc2[nH]nc(C)c12` (stereo not drawn) [Example 127, 6-(4-Hydroxy-phenyl)-3-methyl-1H-pyrazolo[3,4-b]pyridine-4-carboxylic acid (3-amino-1-ethyl-propyl)-amide] was 90%.
Still for that read-out and setting: to `Cc1n[nH]c2nc(-c3ccc(O)c(F)c3)cc(C(=O)N3CCC(N)C3)c12` (stereo not drawn) [Example 336, (3-Amino-pyrrolidin-1-yl)-[6-(3-fluoro-4-hydroxy-phenyl)-3-methyl-1H-pyrazolo[3,4-b]pyridin-4-yl]-methanone] belongs 73%; to `Cc1n[nH]c2nc(-c3ccc(O)c(F)c3)cc(C(=O)N3CCNCC3Cc3ccccc3)c12` (stereo not drawn) [Example 300, (2-Benzyl-piperazin-1-yl)-[6-(3-fluoro-4-hydroxy-phenyl)-3-methyl-1H-pyrazolo[3,4-b]pyridin-4-yl]-methanone], 74%.
As to `Cc1n[nH]c2nc(-c3ccc(O)c(F)c3)cc(C(=O)NC3CC4(CCNCC4)c4ccccc43)c12` (stereo not drawn) [Example 299, 6-(3-Fluoro-4-hydroxy-phenyl)-3-methyl-1H-pyrazolo[3,4-b]pyridine-4-carboxylic acid (2,3-dihydro-spiro[1H-indene-1,4′-piperidin]-3-yl)-amide], the inhibition at 1.14 µM amounted to 92%.
Still for that read-out and setting: the value for `Cc1n[nH]c2nc(-c3ccc(O)c(F)c3)cc(C(=O)N3CCNC4CS(=O)(=O)CC43)c12` (stereo not drawn) [Example 296, (6,6-Dioxo-octahydro-6lambda6-thieno[3,4-b]pyrazin-1-yl)-[6-(3-fluoro-4-hydroxy-phenyl)-3-methyl-1H-pyrazolo[3,4-b]pyridin-4-yl]-methanone] was 32%; that for `Cc1n[nH]c2nc(-c3ccc(O)c(F)c3)cc(C(=O)N3CCCN(C)CC3)c12` [Example 365, [6-(3-Fluoro-4-hydroxy-phenyl)-3-methyl-1H-pyrazolo[3,4-b]pyridin-4-yl]-(4-methyl-[1,4]diazepan-1-yl)-methanone] was 41%; that for `Cc1n[nH]c2nc(-c3ccc(O)cc3)cc(C(=O)NC(CN(C)C)c3ccccc3)c12` (stereo not drawn) [Example 132, 6-(4-Hydroxy-phenyl)-3-methyl-1H-pyrazolo[3,4-b]pyridine-4-carboxylic acid (2-dimethylamino-1-phenyl-ethyl)-amide] was 72%.
Take `Cc1cc(O)ccc1-c1cc(C(=O)N2CCNCC2c2ccc(C(F)(F)F)cc2)c2c(C)n[nH]c2n1` (stereo not drawn) [Example 154, [6-(4-Hydroxy-2-methyl-phenyl)-3-methyl-1H-pyrazolo[3,4-b]pyridin-4-yl]-[2-(4-trifluoromethyl-phenyl)-piperazin-1-yl]-methanone]: the inhibition at 1.14 µM turned out to be 94%.
Same read-out and setting: to `Cc1n[nH]c2nc(-c3ccc(O)cc3)cc(C(=O)N3CCN[C@@H](C(C)C)C3)c12` [Example 233, [6-(4-Hydroxy-phenyl)-3-methyl-1H-pyrazolo[3,4-b]pyridin-4-yl]-((S)-3-isopropyl-piperazin-1-yl)-methanone] belongs 95%.
On the same count and under the same terms, the value for `CCc1n[nH]c2nc(-c3ccc(O)cc3)cc(C(=O)N3CC[C@H](N(C)C)C3)c12` [Example 177, ((S)-3-Dimethylamino-pyrrolidin-1-yl)-[3-ethyl-6-(4-hydroxy-phenyl)-1H-pyrazolo[3,4-b]pyridin-4-yl]-methanone] was 50%; that for `Cc1n[nH]c2nc(-c3ccc(O)cc3)cc(C(=O)N3CCC[C@@H](CN)C3)c12` [Example 110, ((S)-3-Aminomethyl-piperidin-1-yl)-[6-(4-hydroxy-phenyl)-3-methyl-1H-pyrazolo[3,4-b]pyridin-4-yl]-methanone] was 65%; that for `Cc1n[nH]c2nc(-c3ccc(O)cc3)cc(C(=O)N3CCNC(Cc4ccccc4)C3)c12` (stereo not drawn) [Example 375, (3-Benzyl-piperazin-1-yl)-[6-(4-hydroxy-phenyl)-3-methyl-1H-pyrazolo[3,4-b]pyridin-4-yl]-methanone] was 90%.
In the case of `Cc1n[nH]c2nc(-c3ccc(O)c(F)c3)cc(C(=O)NCC3CCCCN3)c12` (stereo not drawn) [Example 367, 6-(3-Fluoro-4-hydroxy-phenyl)-3-methyl-1H-pyrazolo[3,4-b]pyridine-4-carboxylic acid (piperidin-2-ylmethyl)-amide], the inhibition at 1.14 µM came out at 36%.
With `Cc1n[nH]c2nc(-c3ccc(O)cc3)cc(C(=O)N3C[C@@H](C)NC[C@@H]3c3ccccc3)c12` [Example 458, [6-(4-Hydroxy-phenyl)-3-methyl-1H-pyrazolo[3,4-b]pyridin-4-yl]-((2S,5R)-5-methyl-2-phenyl-piperazin-1-yl)-methanone], the inhibition at 1.14 µM was determined as 44%.
Consider `Cc1n[nH]c2nc(-c3ccc(O)c(F)c3)cc(C(=O)N3CCCC4(CNCCO4)C3)c12` (stereo not drawn) [Example 345, [6-(3-Fluoro-4-hydroxy-phenyl)-3-methyl-1H-pyrazolo[3,4-b]pyridin-4-yl]-(1-oxa-4,8-diaza-spiro[5.5]undec-8-yl)-methanone], for which the inhibition at 1.14 µM was 58%.
Consider `Cc1n[nH]c2nc(-c3ccc(O)c(F)c3)cc(C(=O)N3CCNC(C(F)(F)F)C3)c12` (stereo not drawn) [Example 314, [6-(3-Fluoro-4-hydroxy-phenyl)-3-methyl-1H-pyrazolo[3,4-b]pyridin-4-yl]-(3-trifluoromethyl-piperazin-1-yl)-methanone], for which the inhibition at 1.14 µM was found to be 35%.
On the same count and under the same terms, to `Cc1n[nH]c2nc(-c3ccc(O)cc3)cc(C(=O)N3C[C@H](C)NC[C@H]3C)c12` (relative stereo) [Example 73, (trans-2,5-Dimethyl-piperazin-1-yl)-[6-(4-hydroxy-phenyl)-3-methyl-1H-pyrazolo[3,4-b]pyridin-4-yl]-methanone] belongs 95%.
The same measure, in the same setting: the value for `CCc1n[nH]c2nc(-c3ccc(O)cc3)cc(C(=O)NC3CCN(C)CC3)c12` [Example 182, 3-Ethyl-6-(4-hydroxy-phenyl)-1H-pyrazolo[3,4-b]pyridine-4-carboxylic acid (1-methyl-piperidin-4-yl)-amide] was 44%; that for `Cc1n[nH]c2nc(-c3ccc(O)cc3)cc(C(=O)N3CCCC(C)(N)C3)c12` (stereo not drawn) [Example 117, (3-Amino-3-methyl-piperidin-1-yl)-[6-(4-hydroxy-phenyl)-3-methyl-1H-pyrazolo[3,4-b]pyridin-4-yl]-methanone] was 89%.
Regarding `CCC1(NC(=O)c2cc(-c3ccc(O)cc3C)nc3[nH]nc(C)c23)CCCNC1` (stereo not drawn) [Example 149, 6-(4-Hydroxy-2-methyl-phenyl)-3-methyl-1H-pyrazolo[3,4-b]pyridine-4-carboxylic acid (3-ethyl-piperidin-3-yl)-amide], the inhibition at 1.14 µM worked out at 86%.
The same measure, in the same setting: the value for `Cc1n[nH]c2nc(-c3ccc(O)cc3)cc(C(=O)N3C[C@H](C)NC[C@H]3c3ccccc3)c12` [Example 459, [6-(4-Hydroxy-phenyl)-3-methyl-1H-pyrazolo[3,4-b]pyridin-4-yl]-((2R,5S)-5-methyl-2-phenyl-piperazin-1-yl)-methanone] was 95%; that for `Cc1n[nH]c2nc(-c3ccc(O)cc3F)cc(C(=O)N3CC(C)NCC3(C)C)c12` (stereo not drawn) [Example 434, [6-(2-Fluoro-4-hydroxy-phenyl)-3-methyl-1H-pyrazolo[3,4-b]pyridin-4-yl]-(2,2,5-trimethyl-piperazin-1-yl)-methanone] was 106%.
The same measure, in the same setting: to `Cc1n[nH]c2nc(-c3ccc(O)cc3)cc(C(=O)N3CCNCC3)c12` [Example 53, [6-(4-Hydroxy-phenyl)-3-methyl-1H-pyrazolo[3,4-b]pyridin-4-yl]-piperazin-1-yl-methanone] belongs 92%.
